Experimental data: PMC8232551 (RSC Chemical Biology, 2020)
Peptide text beside a SMILES is read from it. * marks the point of attachment. Cbz = O=C(OCc1ccccc1)*

Key:
HeLa cells = test: Live-cell confocal imaging of uptake of fluorescein-labelled peptides; assay type: cell-based; settings: 1000 nM
HEK-293 cells = test: Apoptosis assay in HEK-293 cells; assay type: cell-based; settings: HEK-293 non-cancer derived cells, 10 μM

uptake into live HeLa cells (HeLa cells) | SMILES | induction of apoptosis (HEK-293 cells)
negligible uptake | O=C1OC2(c3ccc(O)cc3Oc3cc(O)ccc32)c2ccccc21 [fluorescein] | 
 | CC(C)C[C@@H](C=O)NC(=O)[C@H](CC(C)C)NC(=O)[C@H](CC(C)C)NC(=O)OCc1ccccc1 [MG132] (Cbz-Leu-Leu-Leu-aldehyde) | did induce apoptosis
